For 23 compounds, inhibition of growth results are on record in patent publication US20240343717A1, “MICROBIOCIDAL PYRAZOLE DERIVATIVES” (SYNGENTA CROP PROTECTION AG, priority 2021, published 2024).

Common to all, as to type: cell-based
Experiment [1] has as its system Mycosphaerella graminicola (Septoria tritici). Nature of the experiment: Mycosphaerella graminicola (Septoria tritici) / liquid culture (Septoria blotch). Particulars: Zymoseptoria tritici, growth inhibition photometrically 4-5 days after application, read-out: control of Mycosphaerella graminicola. As to the method:
Example B16: Mycosphaerella graminicola (Septoria tritici)/Liquid Culture (Septoria Blotch) Conidia of the fungus from cryogenic storage are directly mixed into nutrient broth (PDB potato dextrose broth). After placing a (DMSO) solution of test compound into a microtiter plate (96-well format), the nutrient broth containing the fungal spores is added. The test plates are incubated at 24° C. and the inhibition of growth is determined photometrically 4-5 days after application.

Experiment [2] concerns Botryotinia fuckeliana (Botrytis cinerea). Nature of the experiment: Botryotinia fuckeliana (Botrytis cinerea) / liquid culture (gray mould). Particulars: growth inhibition photometrically 3-4 days after application, read-out: control of Botryotinia fuckeliana. As to the method: Example B2: Botryotinia fuckeliana (Botrytis cinerea)/Liquid Culture (Gray Mould) Conidia of the fungus from cryogenic storage are directly mixed into nutrient broth (Vogels broth). After placing a (DMSO) solution of test compound into a microtiter plate (96-well format), the nutrient broth containing the fungal spores is added. The test plates are incubated at 24° C. and the inhibition of growth is determined photometrically 3-4 days after application.

Experiment [3] concerns Monographella nivalis (Microdochium nivale). Nature of the experiment: Monographella nivalis (Microdochium nivale) / liquid culture (foot rot cereals). Conditions: growth inhibition photometrically 4-5 days after application, read-out: control of Monographella nivalis. As for the experimental part:
Example B9: Monographella nivalis (Microdochium nivale)/Liquid Culture (Foot Rot Cereals) Conidia of the fungus from cryogenic storage are directly mixed into nutrient broth (PDB potato dextrose broth). After placing a (DMSO) solution of test compound into a microtiter plate (96-well format), the nutrient broth containing the fungal spores is added. The test plates are incubated at 24° C. and the inhibition of growth is determined photometrically 4-5 days after application.

The test system of experiment [4] is Glomerella lagenarium (Colletotrichum lagenarium). Nature of the experiment: Glomerella lagenarium (Colletotrichum lagenarium) / liquid culture (anthracnose). Particulars: Colletotrichum orbiculare, growth inhibition photometrically 3-4 days after application, read-out: control of Glomerella lagenarium. As to the method: Example B3: Glomerella lagenarium (Colletotrichum lagenarium)/Liquid Culture (Anthracnose) Conidia of the fungus from cryogenic storage are directly mixed into nutrient broth (PDB potato dextrose broth). After placing a (DMSO) solution of test compound into a microtiter plate (96-well format), the nutrient broth containing the fungal spores is added. The test plates are incubated at 24° C. and the inhibition of growth is measured photometrically 3-4 days after application.

Regarding `Cc1cc(C(=O)NCC(C)(c2cnn(C)c2)c2cccc(Cl)n2)no1` (centres unmarked) [Compound P-77, N-[2-(6-chloro-2-pyridyl)-2-(1-methylpyrazol-4-yl)propyl]-5-methyl-isoxazole-3-carboxamide], in experiment [1], the inhibition of growth at 20 ppm was at least 80%. On to `Cn1cc(C(C)(CNC(=O)c2cc(-c3ccc(F)cc3F)on2)c2cc(O)cc(Cl)n2)cn1` (centres unmarked) [Compound P-38, N-[2-(6-chloro-4-hydroxy-2-pyridyl)-2-(1-methylpyrazol-4-yl)propyl]-5-(2,4-difluorophenyl) isoxazole-3-carboxamide], for which the inhibition of growth at 20 ppm in experiment [1] and in experiment [2] was at least 80% each time.

In the case of `COc1cc(Cl)nc([C@](C)(CNC(=O)c2cc(-c3ccc(F)cc3F)no2)c2cnn(C)c2)c1` [Compound P-47, N-[(2S)-2-(6-chloro-4-methoxy-2-pyridyl)-2-(1-methylpyrazol-4-yl)propyl]-3-(2,4-difluorophenyl) isoxazole-5-carboxamide], the inhibition of growth at 20 ppm in experiment [1], in experiment [2] and in experiment [3] was at least 80% throughout.

Regarding `Cn1cc(C(C)(CNC(=O)c2cc(-c3ccc(Cl)cc3Cl)on2)c2cccc(Cl)n2)cn1` (centres unmarked) [Compound P-28], the inhibition of growth at 20 ppm in experiment [1], in experiment [4] and in experiment [3] was at least 80% each time. `Cc1ncc(-c2cccc(C(C)(CNC(=O)c3cc(-c4ccc(F)cc4F)on3)c3cnn(C)c3)n2)cc1F` (centres unmarked) [Compound P-97, 5-(2,4-difluorophenyl)-N-[2-[6-(5-fluoro-6-methyl-3-pyridyl)-2-pyridyl]-2-(1-methylpyrazol-4-yl)propyl]isoxazole-3-carboxamide]: in experiment [1], the inhibition of growth at 20 ppm was at least 80%.

Turning to `Cn1cc(C(C)(CNC(=O)c2cc(-c3ccc(F)cc3F)on2)c2ccc(Br)cn2)cn1` (centres unmarked) [Compound P-33, N-[2-(5-bromo-2-pyridyl)-2-(1-methylpyrazol-4-yl)propyl]-5-(2,4-difluorophenyl) isoxazole-3-carboxamide], the inhibition of growth at 20 ppm in experiment [1], in experiment [4] and in experiment [3] was at least 80% in each case.

With `Cc1noc(C)c1-c1cccc(C(C)(CNC(=O)c2cc(-c3ccc(F)cc3F)on2)c2cnn(C)c2)n1` (centres unmarked) [Compound P-94, 5-(2,4-difluorophenyl)-N-[2-[6-(3,5-dimethylisoxazol-4-yl)-2-pyridyl]-2-(1-methylpyrazol-4-yl)propyl]isoxazole-3-carboxamide], the inhibition of growth at 20 ppm in experiment [1] and in experiment [3] was at least 80% in each case. Regarding `COc1ncc(-c2cccc(C(C)(CNC(=O)c3cc(-c4ccc(F)cc4F)on3)c3cnn(C)c3)n2)c(OC)n1` (centres unmarked) [Compound P-88, 5-(2,4-difluorophenyl)-N-[2-[6-(2,4-dimethoxypyrimidin-5-yl)-2-pyridyl]-2-(1-methylpyrazol-4-yl)propyl]isoxazole-3-carboxamide], the inhibition of growth at 20 ppm in experiment [1], in experiment [2] and in experiment [3] was at least 80% each time. Turning to `Cn1cc(C(C)(CNC(=O)c2cc(-c3ccc(F)cc3F)on2)c2cccc(C3(C#N)CC3)n2)cn1` (centres unmarked) [Compound P-104, N-[2-[6-(1-cyanocyclopropyl)-2-pyridyl]-2-(1-methylpyrazol-4-yl)propyl]-5-(2,4-difluorophenyl) isoxazole-3-carboxamide], the inhibition of growth at 20 ppm in experiment [1] and in experiment [3] was at least 80% each time. Take `Cn1cc(C(C)(CNC(=O)c2cc(-c3ccc(F)cc3F)on2)c2cccc(-c3ccnn3C)n2)cn1` (centres unmarked) [Compound P-95, 5-(2,4-difluorophenyl)-N-[2-(1-methylpyrazol-4-yl)-2-[6-(2-methylpyrazol-3-yl)-2-pyridyl]propyl] isoxazole-3-carboxamide]: the inhibition of growth at 20 ppm in experiment [1] and in experiment [3] was at least 80% each time. `Cc1cc(-c2cccc(C(C)(CNC(=O)c3cc(-c4ccc(F)cc4F)on3)c3cnn(C)c3)n2)ccn1` (centres unmarked) [Compound P-89, 5-(2,4-difluorophenyl)-N-[2-(1-methylpyrazol-4-yl)-2-[6-(2-methyl-4-pyridyl)-2-pyridyl]propyl] isoxazole-3-carboxamide]: the inhibition of growth at 20 ppm in experiment [1] and in experiment [3] was at least 80% each time. Turning to `Cn1cc(C(C)(CNC(=O)c2cc(-c3ccc(F)cc3F)on2)c2cc(Br)ccn2)cn1` (centres unmarked) [Compound P-66, N-[2-(4-bromo-2-pyridyl)-2-(1-methylpyrazol-4-yl)propyl]-5-(2,4-difluorophenyl) isoxazole-3-carboxamide], the inhibition of growth at 20 ppm in experiment [1] is at least 80%.

In the case of `Cn1cc(C(C)(CNC(=O)c2cc(-c3ccc(F)cc3F)on2)c2ccc(N)cn2)cn1` (centres unmarked) [Compound P-58, N-[2-(5-amino-2-pyridyl)-2-(1-methylpyrazol-4-yl)propyl]-5-(2,4-difluorophenyl) isoxazole-3-carboxamide], in experiment [3], the inhibition of growth at 20 ppm is at least 80%. As to `Cc1cncc(-c2cccc(C(C)(CNC(=O)c3cc(-c4ccc(F)cc4F)on3)c3cnn(C)c3)n2)c1` (centres unmarked) [Compound P-91, 5-(2,4-difluorophenyl)-N-[2-(1-methylpyrazol-4-yl)-2-[6-(5-methyl-3-pyridyl)-2-pyridyl]propyl] isoxazole-3-carboxamide], the inhibition of growth at 20 ppm in experiment [1] and in experiment [3] was at least 80% in each case. With `Cn1cc(C(C)(CNC(=O)c2nnc(-c3ccc(F)cc3F)s2)c2ncccc2Cl)cn1` (centres unmarked) [Compound P-1, N-[2-(3-chloro-2-pyridyl)-2-(1-methylpyrazol-4-yl)propyl]-5-(2,4-difluorophenyl)-1,3,4-thiadiazole-2-carboxamide], the inhibition of growth at 20 ppm in experiment [1], in experiment [2] and in experiment [3] was at least 80% each time. With `Cc1c(-c2cccc(C(C)(CNC(=O)c3cc(-c4ccc(F)cc4F)on3)c3cnn(C)c3)n2)ccnc1F` (centres unmarked) [Compound P-98, 5-(2,4-difluorophenyl)-N-[2-[6-(2-fluoro-3-methyl-4-pyridyl)-2-pyridyl]-2-(1-methylpyrazol-4-yl)propyl]isoxazole-3-carboxamide], the inhibition of growth at 20 ppm in experiment [1] is at least 80%. As to `Cn1cc(C(C)(CNC(=O)c2cc(-c3ccc(F)cc3F)on2)c2cc(C#N)cc(Cl)n2)cn1` (centres unmarked) [Compound P-41, N-[2-(6-chloro-4-cyano-2-pyridyl)-2-(1-methylpyrazol-4-yl)propyl]-5-(2,4-difluorophenyl) isoxazole-3-carboxamide], the inhibition of growth at 20 ppm in experiment [1] and in experiment [2] was at least 80% in each case. For the compound `COc1cc(C#N)nc(C(C)(CNC(=O)c2cc(-c3ccc(F)cc3F)on2)c2cnn(C)c2)c1` (centres unmarked) [Compound P-67, N-[2-(6-cyano-4-methoxy-2-pyridyl)-2-(1-methylpyrazol-4-yl)propyl]-5-(2,4-difluorophenyl) isoxazole-3-carboxamide], the inhibition of growth at 20 ppm in experiment [1] and in experiment [3] was at least 80% throughout. On to `COc1cccc(C(C)(CNC(=O)c2cc(-c3ccc(F)cc3OC)on2)c2cnn(C)c2)n1` (centres unmarked) [Compound P-99, 5-(4-fluoro-2-methoxy-phenyl)-N-[2-(6-methoxy-2-pyridyl)-2-(1-methylpyrazol-4-yl)propyl]isoxazole-3-carboxamide], for which the inhibition of growth at 20 ppm in experiment [1] was at least 80%. Same read-out and setting: the same measure for `COc1ccc(C(C)(CNC(=O)c2cc(-c3ccc(F)cc3F)on2)c2cnn(C)c2)nc1Br` (centres unmarked) [Compound P-109, N-[2-(6-bromo-5-methoxy-2-pyridyl)-2-(1-methylpyrazol-4-yl)propyl]-5-(2,4-difluorophenyl) isoxazole-3-carboxamide]: at least 80%. On to `Cn1cc(C(C)(CNC(=O)c2cc(-c3ccc(F)cc3F)on2)c2cc(Cl)ccn2)cn1` (centres unmarked) [Compound P-18, N-[2-(4-chloro-2-pyridyl)-2-(1-methylpyrazol-4-yl)propyl]-5-(2,4-difluorophenyl) isoxazole-3-carboxamide], for which the inhibition of growth at 20 ppm in experiment [1] and in experiment [3] was at least 80% each time. Turning to `COc1ccc(C(C)=O)nc1C(C)(CNC(=O)c1cc(-c2ccc(F)cc2F)on1)c1cnn(C)c1` (centres unmarked) [Compound P-112], in experiment [1], the inhibition of growth at 20 ppm was at least 80%. On to `Cn1cc(C(CNC(=O)c2cc(-c3ccc(F)cc3F)on2)c2cccc(Cl)n2)cn1` (centres unmarked) [Compound P-13, N-[2-(6-chloro-2-pyridyl)-2-(1-methylpyrazol-4-yl)ethyl]-5-(2,4-difluorophenyl)isoxazole-3-carboxamide], for which the inhibition of growth at 20 ppm in experiment [1], in experiment [2] and in experiment [3] was at least 80% throughout.
